Experimental findings from patent publication US20240279191A1, “SMALL MOLECULE INHIBITORS OF TEAD-YAP” (The General Hospital Corporation, priority 2021, published 2024) are described below.

One series can be described thus: Metabolic stability HLM. The format is in vitro ADME, human.
The subject of the next series is KNS62. Kind of series: KNS62 growth inhibition (SAR tables). The class given is cell-based.
The nature of another series: logD 7.4. Conditions: pH 7.4.
In a further series the test system is H226 cells. Kind of series: Cell proliferation assay (MTT), H226. The conditions noted are these: Homo sapiens, NCI-H226, 144 h, read-out: IC50 H226 cell proliferation.
A further series has as its system NCI-H28 cells. Description: Cell proliferation assay (MTT), NCI-H28. The conditions noted are these: Homo sapiens, NCI-H28, read-out: IC50 NCI-H28 cell proliferation.
The next series relates to H226. Description: H226 growth inhibition (SAR tables). The conditions noted are these: Homo sapiens, NCI-H226. The class given is cell-based.
A further series has as its system HCC95. Kind of series: HCC95 growth inhibition (SAR tables). The format is cell-based.
Series [1] concerns Mouse hepatic progenitor organoids. Kind of series: Organoids viability. The class given is cell-based. The conditions noted are these: 40 nM. How it is done:
Mouse hepatic progenitor organoids (70932, […] Tech) were seeded in 96 well plate using 20 ul Matrigel (Corning, #354230) and cultured in HepatiCult™ Organoid Growth Medium (06031, […] Tech) with or without TM2. Medium was replaced after every 48 h with fresh compound. Organoid viability was measured by PrestoBlue™ HS Cell Viability Reagent (ThermoFisher, #P50200) following the manufacturer's protocol.

A further series in a line: Metabolic stability MLM. The conditions noted are these: % parent remained per Table G2.
A further series has as its target Myc-TEAD1 (Homo sapiens, UniProt P28347). Kind of series: Inhibition of Myc-TEAD1 palmitoylation in HEK293A cells. The class given is cell-based. The conditions noted are these: 24 h, dose-dependent, FIG. 2C. The method, then: HEK293A cells were seeded in 6 cm dishes overnight and transfected with plasmids using PEI reagent (1 μg/μL). Briefly, PRK5-Myc-TEAD1 (33109, Addgene) and PEI were diluted in serum-free DMEM medium in two tubes (DNA: PEI ratio=1:2). After standing still for 5 mins, mix them well and stay for another 20 mins. The mixture was then added to dishes directly.
HEK293A cells with or without TEAD overexpression were pretreated with DMSO or TM2 in medium with 10% dialyzed fetal bovine serum (DFBS) for 8 h and labeled by Alkynyl Palmitic acid (1165, Click Chemistry Tools) for another 16 h. The cells were then washed and harvested by cold DPBS (14190250, Life Technologies). The cell pellets were isolated by centrifugation (500×g, 10 min) and lysed by TEA lysis buffer (50 mM TEA-HCl, pH 7.4, 150 mM NaCl, 1% Triton X-100, 0.2% SDS, 1×Protease inhibitor-EDTA free cocktail (05892791001, Roche), phosphatase inhibitor cocktail (P0044, Sigma-Aldrich)) on ice for 30 mins. The protein concentration was determined using Bio-Rad assay and adjusted to 1 mg/mL. 100 μL of protein sample mixture was treated with 10 μL of freshly prepared “click” mixture containing 1 mM TBTA, 10 mM TCEP, 10 mM CuSO4, 1 mM TBTA Biotin-Azide and incubated for 1 h at room temperature. […] The bound proteins were eluted with a buffer containing 10 mM EDTA pH 8.2 and 95% formamide and analyzed with SDS-PAGE. […]

The test system of the next series is HCT116 cells. Kind of series: Drug combination matrix TM2 + Trametinib, HCT116. The class given is cell-based, Human. The conditions noted are these: 5 doses TM2 x 9 doses trametinib, day 5, Bliss, FIG. 10. The method, then:
(§1) The drug combination experiments were preformed using a drug combination matrix across 5 doses of TM2 (5 μM, 3-fold dilution) and 9 doses of Trametinib (10 μM, 3-fold dilution) in different tumor cell lines. Cell viability was determined at day 5 after the drugs administration by MTT. Drug synergy score was calculated followed Bliss rule. Synergy Score and Plot was generated by “Synergyfinder” package in R language.

For another series, the system named is NCI-H2052 cells. Kind of series: Cell proliferation assay (MTT), NCI-H2052. The conditions noted are these: Homo sapiens, NCI-H2052, read-out: IC50 NCI-H2052 cell proliferation.
For series [2], the target named is association of YAP with endogenous TEAD1 and pan-TEAD (Homo sapiens, UniProt P28347). Kind of series: YAP co-immunoprecipitation (Co-IP) assay in H226 cells. The format is cell-based. Conditions: H226, 24 h, dose-dependent, FIG. 5A. The method, then: H226 cells were treated with DMSO or TM2 for 24 h. The cells were then washed and harvested by cold DPBS. The cell pellets were isolated by centrifugation (500×g, 10 min) and lysed by lysis buffer (50 mM Tris-HCl pH 7.5, 10% Glycerol, 1% NP-40, 300 mM NaCl, 150 mM KCl, 5 mM EDTA, phosphatase inhibitor cocktail, complete EDTA-free protease inhibitors cocktail) on ice. After dilution with 50 mM Tris-HCl pH 7.5, 10% Glycerol, 1% NP-40, 5 mM EDTA, the protein samples were incubated with mouse anti-YAP antibody (sc-101199, Santa Cruz) overnight at 4° C. and immunoprecipitated with prewashed protein A/G beads (P5030-1, UBPBio) for another 4 h at 4° C. The bound proteins were washed with 0.1% PBST for three times and eluted with 1×SDS loading buffer and analyzed with SDS-PAGE. Anti-TEAD1 (1:1000, 12292S, Cell Signaling), anti-pan-TEAD (1:1000, 13295, Cell Signaling) or anti-YAP (1:1000, 140745, Cell Signaling) antibody were used to detect TEAD1, pan-TEAD or YAP, respectively. Secondary antibody was anti-rabbit (1:5000, 7074S, Cell Signaling).
Sequence of association of YAP with endogenous TEAD1 and pan-TEAD (P28347 whole entry): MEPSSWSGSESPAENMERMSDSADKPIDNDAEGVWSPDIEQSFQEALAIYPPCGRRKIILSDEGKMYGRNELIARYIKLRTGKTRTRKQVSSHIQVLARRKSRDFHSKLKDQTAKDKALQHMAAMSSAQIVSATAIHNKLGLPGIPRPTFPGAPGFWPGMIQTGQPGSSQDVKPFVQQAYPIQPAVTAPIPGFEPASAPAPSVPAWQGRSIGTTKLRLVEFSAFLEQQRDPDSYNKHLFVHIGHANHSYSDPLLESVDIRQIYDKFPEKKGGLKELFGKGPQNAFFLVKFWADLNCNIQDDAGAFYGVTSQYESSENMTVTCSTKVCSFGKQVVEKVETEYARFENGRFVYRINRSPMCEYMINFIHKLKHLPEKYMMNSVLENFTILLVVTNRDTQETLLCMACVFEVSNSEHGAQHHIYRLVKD

The target in a further series is DHODH(H) (Homo sapiens, UniProt Q02127). Kind of series: DHODH(H) (Table F1). The conditions noted are these: three values in one cell.
Sequence of DHODH(H) (Q02127 whole entry): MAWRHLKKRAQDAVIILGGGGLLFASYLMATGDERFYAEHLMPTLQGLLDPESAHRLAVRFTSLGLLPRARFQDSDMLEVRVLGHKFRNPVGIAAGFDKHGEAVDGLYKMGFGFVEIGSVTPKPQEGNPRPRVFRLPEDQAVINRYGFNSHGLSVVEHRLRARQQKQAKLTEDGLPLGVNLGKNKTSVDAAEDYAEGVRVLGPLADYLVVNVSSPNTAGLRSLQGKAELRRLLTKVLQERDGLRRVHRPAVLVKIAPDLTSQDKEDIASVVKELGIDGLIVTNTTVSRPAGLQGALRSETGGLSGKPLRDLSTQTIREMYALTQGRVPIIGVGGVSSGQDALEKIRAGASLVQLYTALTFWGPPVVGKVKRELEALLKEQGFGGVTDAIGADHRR
Another series relates to DLD1 cells. Kind of series: Drug combination matrix TM2 + Trametinib, DLD1. The class given is cell-based, Human. The conditions noted are these: 5 doses TM2 x 9 doses trametinib, day 5, Bliss, FIG. 8E. The method, then:
as §1

Sequence of Myc-TEAD1 (P28347 whole entry): as the sequence (P28347 whole entry) above

One may read the logD as lipophilicity at a set pH, counting ionised and neutral species. A higher logD goes with higher lipophilicity. One may read the GI50 as the concentration that inhibits growth by half. In “Metabolic stability HLM” (15 min), `O=C(Nc1ccccc1)N1CCN(C(=O)c2cccc(OCCC3CCCCC3)c2)CC1` [TM2, 4-(3-(2-cyclohexylethoxy)benzoyl)-N-phenylpiperazine-1-carboxamide] displayed a Met stab HLM, 15 min of 44%. The Met stab HLM, 60 min in “Metabolic stability HLM” (60 min) was 6%. In addition, the “KNS62: value at 1 μM” value in the series on KNS62 (1 μM) was determined as 37. Also, the “KNS62: value at 10 μM” value with KNS62 (10 μM) is given as 28. In addition, the logD in “logD 7.4” was 4.6. Besides, the IC50 is 26 nM in the series with H226 cells, greater than 5 µM with NCI-H28 cells and 157 nM in the series on NCI-H2052 cells. For the same compound, it took 73 nM to inhibit growth in the series on H226 by half (GI50). Further, the “HCC95: value at 1 μM” value in the series on HCC95 (1 μM) is on record as 37. Besides, in the series with HCC95 (10 μM), the “HCC95: value at 10 μM” value came out at 65. In addition, in [1], the “disruption of organoids growth” value is listed as “more than 85%”. Besides, the Met stab MLM, 15 min in “Metabolic stability MLM” (15 min) is 36%. Besides, the Met stab MLM, 60 min in “Metabolic stability MLM” (60 min) was found to be 4%. Further, the “Myc-TEAD1 palmitoylation in cells (in words)” value on Myc-TEAD1 is reported as “dramatically suppresses”. The “combination with MEK inhibitor trametinib, HCT116 (in words)” value with HCT116 cells was “strong inhibitory effects and substantial synergy”. Besides, in series [2], the “association of YAP with endogenous TEAD1 and pan-TEAD (in words)” value is listed as “dramatically blocked”. For the same compound, the “DHODH(H):(GI50 μM/1,10 μM)” value on DHODH(H) was 5/6/15. Further, in the series with DLD1 cells, the “combination with MEK inhibitor trametinib, DLD1 (in words)” value was “strong inhibitory effects and substantial synergy”.
